Consider five compounds from patent publication US20190015650A1, “MICRONEEDLE TATTOO PATCHES AND USE THEREOF” (Massachusetts Institute of Technology, priority 2017, published 2019).

Data set [1] is described as follows: Chemical stability of dyes: hydrogen peroxide and pH. The class given is physicochemical. The procedure:
Additional evaluations on the dyes to withstand oxidative stress were tested by submerging the dye in 3 mM or 3 micromolar hydrogen peroxide, and compared for signal before and after such treatment (FIG. 9B). 23 fluorophores were tested.
The pH stability of the dyes was evaluated by submerging in different pH ranging from 1 to 13 (FIG. 9C). 17 fluorophores were tested.

A short description of data set [2]: Photostability of dyes exposed to compact fluorescent (CFL) bulb. It is filed as physicochemical. The procedure: Dyes were prepared in solution (1 mM) or suspension (1 mg/mL) and exposed to light from a compact fluorescent (CFL) bulb (FIG. 9A). 55 fluorophores were tested including organic, encapsulated organic, inorganic, inorganic nanoparticle, tattoo, and semiconducting polymer dots.

In the case of `CCCN1/C(=C/C=C2\CCCC(/C=C/C3=[N+](CCC)c4ccccc4C3(C)C)=C2Cl)C(C)(C)c2ccccc21.[I-]` [IR780], in data set [1], the “Performance: chemical stability” value was “Poor chemical stability”. For the same compound, the “Performance: photostability” value in data set [2] is “Poor photostability”. For `CCN1C(=CC=CC=CC=CC2=[N+](CCCCCC(=O)O)c3ccc(S(=O)(=O)O)cc3C2(C)C)C(C)(C)c2cc(S(=O)(=O)[O-])ccc21` [CY7], in that order: “Poor chemical stability” and “Poor photostability”.

For Rhodamine, the “Performance: photostability” value in data set [2] is “Poor photostability”. On to `O=C1OC2(c3ccc(O)cc3Oc3cc(O)ccc32)c2ccccc21` [Fluorescein], for which the “Performance: photostability” value in data set [2] is on record as “Poor photostability”. Consider `CCN1/C(=C/C=C/C=C/C2=[N+](CCCCCC(=O)O)c3ccc(S(=O)(=O)O)cc3C2(C)C)C(C)(C)c2cc(S(=O)(=O)[O-])ccc21` [CY5], for which the “Performance: chemical stability” value in data set [1] was “Poor chemical stability”. For the same compound, the “Performance: photostability” value in data set [2] is “Poor photostability”.
